Source: patent US12691143B2, “Method for treating cancer” (priority 2020, dated 2026)
“Also recorded” adds a separate entry of the source.

How the values were obtained:
[1] = system: SW1710 bladder cancer cell line; assay: In vitro drug sensitivity assay / crystal violet staining; format: cell-based; details: SW1710 compared with other bladder cancer cell lines
Experimental: Cells were seeded in either 96-well (5,000 cells/well) or 24-well (20,000 cells/well) plates. The following day, irofulven and cisplatin stock solutions were serially diluted in media and added to cells. After 48 to 72 hours, media was removed and CellTiter-Glo® reagent (Promega; Madison, WI) was added. Plates were scanned using a luminescence microplate reader (BioTek). Survival at each drug concentration was plotted as a percentage of survival in drug-free media with error bars representing the standard deviation of at least three experiments.
For crystal violet imaging experiments, cells were seeded in 6-well plates (100,000-200,000 cells/well) with 15 nM siRNA transfection mixture (as detailed above). At 24 hours, fresh media containing irofulven or PBS was added and the cells were incubated for an additional 72 hours. Cells were then fixed in formalin solution for 30 minutes and stained with crystal violet prepared in equal volumes of methanol and water. Excess crystal violet was removed by washing with PBS, and plates were then dried and imaged.

[2] = system: KE1 xenografts (NER-deficient); assay: Xenograft study; format: in vivo, mice
Experimental: (§1) Six week old female athymic nude mice, NU/J (Stock No: 002019) were purchased from Jackson Laboratory (Bar Harbor, ME) and housed at the Dana-Farber Cancer Institute Animal Resources Facility. All animal experiments were performed in accordance with an IACUC-approved protocol. At 7-10 weeks of age, mice were anesthetized with isoflurane and subcutaneously injected on the left flank with 3 million KE1 or 1 million KU19-19 cells mixed 1:1 with Matrigel (BD Biosciences; Mississauga, ON) in PBS. Tumor size was measured with a digital caliper twice weekly and calculated using the formula: (L×W^2)×½. Drug treatments were administered when the average tumor volume reached a minimum of 100 mm^3. Irofulven was prepared in PBS to a stock concentration of 200 μg/ml and was delivered intraperitoneally (IP) twice weekly at doses of 250 μg/kg, 500 μg/kg or 1 mg/kg for a total of 5 injections or until the tumor reached a pre-specified protocol endpoint. Control mice were injected with PBS alone. At the end of the experiment, mice were sacrificed and tumors were excised for tumor weight measurements and imaging.
(§2) Six week old female athymic nude mice, NU/J (Stock No: 002019) were purchased from Jackson Laboratory (Bar Harbor, ME) and housed at the Dana-Farber Cancer Institute Animal Resources Facility. All animal experiments were performed in accordance with an IACUC-approved protocol. At 7-10 weeks of age, mice were anesthetized with isoflurane and subcutaneously injected on the left flank with 3 million KE1 or 1 million KU19-19 cells mixed 1:1 with Matrigel (BD Biosciences; Mississauga, ON) in PBS. Tumor size was measured with a digital caliper twice weekly and calculated using the formula:
(§3) [formula] Drug treatments were administered when the average tumor volume reached a minimum of 100 mm^3. Irofulven was prepared in PBS to a stock concentration of 200 μg/ml and was delivered intraperitoneally (IP) twice weekly at doses of 250 μg/kg, 500 μg/kg or 1 mg/kg for a total of 5 injections or until the tumor reached a pre-specified protocol endpoint. Control mice were injected with PBS alone. At the end of the experiment, mice were sacrificed and tumors were excised for tumor weight measurements and imaging.

[3] = system: KU19-19 xenografts (NER-proficient); assay: Xenograft study; format: in vivo, mice; details: 1 mg/kg irofulven
Experimental: as §1, §2, §3

KU19-19 cells = assay: Irofulven sensitivity after siRNA depletion of NER genes; format: cell-based
From the text: (§4) Bladder cancer cell lines were purchased from ATCC. The KE1 bladder cancer cell line is a derivative of KU19-19 in which an ERCC2 T484 mutation has been introduced by CRISPR/Cas9 gene editing as previously described (6). The MDA-MB-468 breast cancer cell line and its ERCC4-complemented derivative have been previously described (35). Small interfering RNAs (siRNAs) targeting specific NER genes as well as a non-targeting siRNA (siNTC) were purchased from Integrated DNA Technologies Inc. (Coralville, IA, USA; see Table 9 for sequences). Cells were seeded in 6-well plates and grown to 50% confluency. A transfection mixture containing siRNA diluted to a final concentration of 30 nM in Opti-MEM media containing Lipofectamine 3000 (Life Technologies; Carlsbad, CA) was then added to cells. After 48 hours, cells were trypsinized and re-aliquoted to separate wells and transfected with 15 nM siRNA for 24 hours immediately prior to viability assays performed as described below. […]
(§5) Cells were seeded in either 96-well (5,000 cells/well) or 24-well (20,000 cells/well) plates. […] Plates were scanned using a luminescence microplate reader (BioTek). […]

[4] = system: MDA-MB-468 breast cancer cell line (NER deficient, ERCC4 silenced); assay: In vitro drug sensitivity assay, parental vs ERCC4-complemented line; format: cell-based; details: NER-deficient parental MDA-MB-468 compared with ERCC4-complemented counterpart
From the text: as §4, §5

CC1=C(CO)C2=C(C)C3(CC3)[C@@](C)(O)C(=O)C2=C1 [irofulven]
irofulven sensitivity [1]: much higher sensitivity | tumor dose response ([2]; 250 μg/kg, 500 μg/kg or 1 mg/kg IP twice weekly): strong irofulven dose response | tumor response (tumor volume) ([2]; 1 mg/kg IP twice weekly, total of five doses): near complete tumor regression | xenograft weights ([2]; irofulven-treated vs untreated mice): significantly lower | tumor response [3]: no response; also recorded: did not show response | irofulven sensitivity after gene depletion (KU19-19 cells; siRNA depletion of GG-NER gene DDB2): minimal impact | irofulven sensitivity after gene depletion (KU19-19 cells; siRNA depletion of TC-NER gene ERCC6 or common NER gene ERCC3): significantly higher irofulven sensitivity; also recorded: sufficient to increase irofulven sensitivity | irofulven sensitivity [4]: significantly more sensitive; also recorded: dramatically higher irofulven sensitivity
